Source: paper PMC3400326 (Pharmacogenomics and personalized medicine, 2011)

Tests used:
SULT1A1 = SULT1A1 (Homo sapiens, UniProt P50225); experiment: intrinsic fluorescence titration; type: binding
SULT1E1 = biological target: T1, SULT1E1 (Homo sapiens, UniProt P49888); experiment: intrinsic fluorescence titration; type: binding
T1 sequence (P49888 1-294): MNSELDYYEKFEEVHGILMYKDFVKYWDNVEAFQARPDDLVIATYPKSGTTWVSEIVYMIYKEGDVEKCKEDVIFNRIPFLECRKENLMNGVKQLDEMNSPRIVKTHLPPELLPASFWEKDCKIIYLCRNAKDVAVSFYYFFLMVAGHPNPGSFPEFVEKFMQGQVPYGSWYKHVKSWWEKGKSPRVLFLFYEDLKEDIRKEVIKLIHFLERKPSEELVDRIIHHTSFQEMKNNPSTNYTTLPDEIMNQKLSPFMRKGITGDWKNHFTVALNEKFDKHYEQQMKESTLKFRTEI

Sequence of SULT1A1 (P50225 whole entry): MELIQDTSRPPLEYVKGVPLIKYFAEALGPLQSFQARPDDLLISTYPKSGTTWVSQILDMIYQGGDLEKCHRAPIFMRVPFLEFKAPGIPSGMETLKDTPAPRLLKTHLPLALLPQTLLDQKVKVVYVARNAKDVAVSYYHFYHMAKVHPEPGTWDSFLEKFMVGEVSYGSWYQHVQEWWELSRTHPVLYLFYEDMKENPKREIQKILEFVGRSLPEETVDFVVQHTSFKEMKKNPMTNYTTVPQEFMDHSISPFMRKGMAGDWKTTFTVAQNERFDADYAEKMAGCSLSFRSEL

- Kd (SULT1A1): 2300 ± 400 nM
- Kd (SULT1E1): 200 ± 20 nM
SMILES: C[C@]12CC[C@@H]3c4ccc(O)cc4C[C@@H](CCCCCCCCC[S+]([O-])CCCC(F)(F)C(F)(F)F)[C@H]3[C@@H]1CC[C@@H]2O (some centres unmarked) [fulvestrant]
